Source: BigSolDB 2.1

Settings: in water

Row | Structure (SMILES) | solubility (mole fraction) (298.1 K) | solubility (mole fraction) (303.1 K) | solubility (mole fraction) (310.1 K) | solubility (mole fraction) (318.1 K) | solubility (mole fraction) (328.1 K)
1 | CC(C)(C)CC(C)(C)c1ccc(O)cc1 | 1.32e-06 | 1.55e-06 | 1.91e-06 | 2.52e-06 | 3.83e-06
2 | CCCCCCCCc1ccc(O)cc1 | 2.9e-07 | 3.4e-07 | 4.7e-07 | 6.4e-07 | 8.4e-07
3 | CCCCCCCCCc1ccc(O)cc1 | 4e-08 | 5e-08 | 7e-08 | 1.4e-07 | 2e-07
